Measurements published in patent US11077090B2, “Compounds and compositions and uses thereof” (Sunovion Pharmaceuticals Inc., priority 2016, dated 2021).

system: compound-treated mice; assay: Neuropharmacological assay (SmartCube): behavioral activity signature and minimal effective dose; type: in vivo; details: Mus musculus, ip, MED = dose having 50% or more total activity, read-out: Potency: minimal effective dose (MED), binned
Method in brief: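 Video-recorded behavior is compared algorithmically against a reference-compound database, yielding class probabilities (best dose reported). Compounds given i.p. in NMP/PEG/propylene glycol 15 min pre-test at 3 doses; potency as MED, the dose (mpk, range usually 0.3–30) reaching ≥50% total activity.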

| SMILES | minimal effective dose |
| --- | --- |
| COc1cccc2c1CO[C@@H](C)[C@H]2N.Cl [Example 234] | 10 to 30 mg/kg |
| COc1cccc2c1CO[C@H](C)[C@H]2N.Cl [Example 235] | > 30 mg/kg |
| Cc1cc2c(cc1C)[C@H](N)[C@H](C)OC2.Cl [Example 237] | 10 to 30 mg/kg |
| Cc1cc2c(cc1C)[C@H](N)[C@@H](C)OC2.Cl [Example 238] | 10 to 30 mg/kg |
| C[C@@H]1OCc2ccc3c(c2[C@@H]1N)CCCO3.Cl [Example 248] | 10 to 30 mg/kg |
| C[C@H]1OCc2ccc3c(c2[C@@H]1N)CCCO3.Cl [Example 249] | 3 to 10 mg/kg |
| CCC[C@@H]1OCc2ccccc2[C@@H]1N [Example 250] | 3 to 10 mg/kg |
| Cc1ccc2c(c1)CO[C@H](C)[C@H]2N [Example 252] | < 3 mg/kg |
| Cc1ccc2c(c1)CO[C@@H](C)[C@@H]2N [Example 253] | 3 to 10 mg/kg |
| Cc1cccc2c1[C@H](C)OC[C@@H]2N [Example 255] | 10 to 30 mg/kg |
| CC[C@@H]1OCc2ccccc2[C@@H]1NC.Cl [Example 258] | 3 to 10 mg/kg |
| CC[C@H]1OCc2ccccc2[C@@H]1NC.Cl [Example 259] | 10 to 30 mg/kg |
| CCCN[C@@H]1COCc2ccccc21.Cl [Example 262] | 10 to 30 mg/kg |
| C#CCN[C@@H]1COCc2ccccc21.Cl [Example 263] | < 3 mg/kg |
| CCCN[C@@H]1c2ccccc2CO[C@H]1C.Cl [Example 264] | 3 to 10 mg/kg |

same assay, conditions: i.p. 15 min before test, most efficacious dose(s)

| SMILES | AD: ADHD (probability of activity signature) | AG: analgesic (probability of activity signature) | AX: anxiolytic (probability of activity signature) | CE: cognitive enhancer (probability of activity signature) | DP: anti-depressant (probability of activity signature) | MS: mood stabilizer (probability of activity signature) | PS: anti-psychotic (probability of activity signature) | SD: sedative hypnotic (probability of activity signature) | UN: uncharacterized CNS activity (probability of activity signature) |
| --- | --- | --- | --- | --- | --- | --- | --- | --- | --- |
| COc1cccc2c1CO[C@@H](C)[C@H]2N.Cl [Example 234] | + (LOQ ≤ + <5%) | ++ (5% ≤ ++ <25%) | +++ (25% ≤ +++ <50%) | ++ (5% ≤ ++ <25%) | + (LOQ ≤ + <5%) | + (LOQ ≤ + <5%) | ++ (5% ≤ ++ <25%) | ++ (5% ≤ ++ <25%) | ++ (5% ≤ ++ <25%) |
| COc1cccc2c1CO[C@H](C)[C@H]2N.Cl [Example 235] | + (LOQ ≤ + <5%) | + (LOQ ≤ + <5%) | ++ (5% ≤ ++ <25%) | + (LOQ ≤ + <5%) | + (LOQ ≤ + <5%) | + (LOQ ≤ + <5%) | + (LOQ ≤ + <5%) | + (LOQ ≤ + <5%) | + (LOQ ≤ + <5%) |
| Cc1cc2c(cc1C)[C@H](N)[C@H](C)OC2.Cl [Example 237] | + (LOQ ≤ + <5%) | + (LOQ ≤ + <5%) | ++ (5% ≤ ++ <25%) | + (LOQ ≤ + <5%) | + (LOQ ≤ + <5%) | + (LOQ ≤ + <5%) | ++ (5% ≤ ++ <25%) | +++ (25% ≤ +++ <50%) | ++ (5% ≤ ++ <25%) |
| Cc1cc2c(cc1C)[C@H](N)[C@@H](C)OC2.Cl [Example 238] | + (LOQ ≤ + <5%) | + (LOQ ≤ + <5%) | ++ (5% ≤ ++ <25%) | ++ (5% ≤ ++ <25%) | + (LOQ ≤ + <5%) | + (LOQ ≤ + <5%) | ++ (5% ≤ ++ <25%) | + (LOQ ≤ + <5%) | ++++ (50% ≤ ++++) |
| C[C@@H]1OCc2ccc3c(c2[C@@H]1N)CCCO3.Cl [Example 248] | + (LOQ ≤ + <5%) | ++ (5% ≤ ++ <25%) | ++ (5% ≤ ++ <25%) | ++ (5% ≤ ++ <25%) | + (LOQ ≤ + <5%) | + (LOQ ≤ + <5%) | + (LOQ ≤ + <5%) | + (LOQ ≤ + <5%) | +++ (25% ≤ +++ <50%) |
| C[C@H]1OCc2ccc3c(c2[C@@H]1N)CCCO3.Cl [Example 249] | + (LOQ ≤ + <5%) | ++ (5% ≤ ++ <25%) | ++ (5% ≤ ++ <25%) | ++ (5% ≤ ++ <25%) | + (LOQ ≤ + <5%) | + (LOQ ≤ + <5%) | ++ (5% ≤ ++ <25%) | + (LOQ ≤ + <5%) | +++ (25% ≤ +++ <50%) |
| CCC[C@@H]1OCc2ccccc2[C@@H]1N [Example 250] | ++ (5% ≤ ++ <25%) | + (LOQ ≤ + <5%) | ++ (5% ≤ ++ <25%) | + (LOQ ≤ + <5%) | + (LOQ ≤ + <5%) | ++ (5% ≤ ++ <25%) | ++ (5% ≤ ++ <25%) | ++ (5% ≤ ++ <25%) | + (LOQ ≤ + <5%) |
| Cc1ccc2c(c1)CO[C@H](C)[C@H]2N [Example 252] | + (LOQ ≤ + <5%) | + (LOQ ≤ + <5%) | + (LOQ ≤ + <5%) | + (LOQ ≤ + <5%) | ++ (5% ≤ ++ <25%) | ++ (5% ≤ ++ <25%) | ++ (5% ≤ ++ <25%) | ++ (5% ≤ ++ <25%) | ++++ (50% ≤ ++++) |
| Cc1ccc2c(c1)CO[C@@H](C)[C@@H]2N [Example 253] | + (LOQ ≤ + <5%) | + (LOQ ≤ + <5%) | + (LOQ ≤ + <5%) | + (LOQ ≤ + <5%) | ++ (5% ≤ ++ <25%) | ++ (5% ≤ ++ <25%) | ++ (5% ≤ ++ <25%) | ++ (5% ≤ ++ <25%) | ++ (5% ≤ ++ <25%) |
| Cc1cccc2c1[C@H](C)OC[C@@H]2N [Example 255] | + (LOQ ≤ + <5%) | + (LOQ ≤ + <5%) | + (LOQ ≤ + <5%) | + (LOQ ≤ + <5%) | + (LOQ ≤ + <5%) | + (LOQ ≤ + <5%) | + (LOQ ≤ + <5%) | ++ (5% ≤ ++ <25%) | ++ (5% ≤ ++ <25%) |
| CC[C@@H]1OCc2ccccc2[C@@H]1NC.Cl [Example 258] | + (LOQ ≤ + <5%) | + (LOQ ≤ + <5%) | + (LOQ ≤ + <5%) | + (LOQ ≤ + <5%) | ++ (5% ≤ ++ <25%) | ++ (5% ≤ ++ <25%) | + (LOQ ≤ + <5%) | ++ (5% ≤ ++ <25%) | + (LOQ ≤ + <5%) |
| CC[C@H]1OCc2ccccc2[C@@H]1NC.Cl [Example 259] | + (LOQ ≤ + <5%) | + (LOQ ≤ + <5%) | + (LOQ ≤ + <5%) | + (LOQ ≤ + <5%) | ++ (5% ≤ ++ <25%) | + (LOQ ≤ + <5%) | + (LOQ ≤ + <5%) | +++ (25% ≤ +++ <50%) | ++ (5% ≤ ++ <25%) |
| CCCN[C@@H]1COCc2ccccc21.Cl [Example 262] | + (LOQ ≤ + <5%) | + (LOQ ≤ + <5%) | + (LOQ ≤ + <5%) | + (LOQ ≤ + <5%) | ++ (5% ≤ ++ <25%) | + (LOQ ≤ + <5%) | + (LOQ ≤ + <5%) | ++ (5% ≤ ++ <25%) | ++ (5% ≤ ++ <25%) |
| C#CCN[C@@H]1COCc2ccccc21.Cl [Example 263] | + (LOQ ≤ + <5%) | + (LOQ ≤ + <5%) | + (LOQ ≤ + <5%) | + (LOQ ≤ + <5%) | + (LOQ ≤ + <5%) | + (LOQ ≤ + <5%) | + (LOQ ≤ + <5%) | ++ (5% ≤ ++ <25%) | + (LOQ ≤ + <5%) |
| CCCN[C@@H]1c2ccccc2CO[C@H]1C.Cl [Example 264] | ++ (5% ≤ ++ <25%) | + (LOQ ≤ + <5%) | ++ (5% ≤ ++ <25%) | + (LOQ ≤ + <5%) | ++ (5% ≤ ++ <25%) | ++ (5% ≤ ++ <25%) | +++ (25% ≤ +++ <50%) | ++ (5% ≤ ++ <25%) | + (LOQ ≤ + <5%) |
